Measured values from patent US8586555B2, “Immunomodulatory compositions, formulations, and methods for use thereof” (Dynavax Technologies Corporation, priority 2001, dated 2013).

Key:
[1] = system: human peripheral blood mononuclear cells (hPBMC); test: human PBMC assay, Example 6; type: cell-based
Method: (§1) Hexameric oligonucleotides were tested for immunomodulatory activity alone and complexed with lactic acid/glycolic acid copolymer microcarrier beads using a human peripheral blood mononuclear cells (hPBMC) assay. Peripheral blood was collected from healthy volunteers by venipuncture using heparinized syringes. Blood was layered onto a FICOLL® (Amersham Pharmacia Biotech) cushion and centrifuged. hPBMCs, located at the FICOLL® interface, were collected, then washed twice with cold phosphate buffered saline (PBS). The cells were resuspended and cultured in 48 well plates at 2×10^6 cells/mL at 37° C. in RPMI 1640 with 10% heat-inactivated human AB serum plus 50 units/mL penicillin, 50 μg/mL streptomycin, 300 μg/mL glutamine, 1 mM sodium pyruvate, and 1×MEM non-essential amino acids (NEAA).
(§2) Oligonucleotides were tested as single agents, or in combination with PLGA microspheres (unmodified or cationic). All oligonucleotides contained 100% phosphorothioate linkages and were tested at 20 μg/ml. The PLGA microcarriers were used at 250 μg/ml. When oligos were tested with PLGA microcarriers, the oligo and the microcarriers were added at the same time to the culture. The cells were cultured in the in the presence of test samples for 24 hours, then cell-free medium was collected from each well and assayed for IFN-γ and IFN-α concentration. Two different oligonucleotides were used as controls: a first oligonucleotide known to have immunostimulatory activity (a 22mer oligonucleotide containing an ISS (“ISS+,” 5′-[…]-3′(SEQ ID NO:2)) and a second oligonucleotide of similar sequence but lacking immunostimulatory activity (“ISS−,” 5′-[…]-3′ (SEQ ID NO:1)). SAC (PANSORBIN® CalBiochem, 1/5000 dilution) and a untreated culture were used as additional positive and negative controls, respectively. SAC contains Staph. aureus (Cowan I) cell material. All samples were assayed in duplicate.
(§3) IFN-γ and IFN-α were assayed using CYTOSCREEN™ ELISA kits from BioSource International, Inc., according to the manufacturer's instructions.
(§4) The immunomodulatory activity of the oligonucleotides used in Examples 3 and 4 was confirmed with the human PBMC assay using PBMCs from an additional four donors (donors 28051-28054). Oligonucleotides were tested alone or in combination with cationic PLGA as described in Example 3, except that 96 well plates were used instead of 48 well plates and the oligonucleotides were premixed with the cationic microspheres at room temperature for 15 minutes before they were added to the culture, rather than being added simultaneously to the culture.
Additional oligonucleotides were tested for immunomodulatory activity in the human PBMC assay. Oligonucleotides were tested alone or in combination with cPLGA as described in Example 5.
Additional oligonucleotides were tested using hPBMCs from volunteers 154-157 using the same assay. Results, which are shown in Table 7, confirm the activity of oligonucleotides fitting the formula 5′-X1TCGX2-3′, where the oligonucleotide is a 3-6mer, X1 is zero or one nucleotide and X2 is zero to three nucleotides.

[2] = system: human peripheral blood mononuclear cells (hPBMC); test: human PBMC assay, Example 7 (oligo 20 μg/ml, cPLGA 100 μg/ml); type: cell-based; details: for immunomodulatory activity: combined with cPLGA; for IFN-α Mean / IFN-γ Mean: mean of donors 28115-28118
Method: as §1, §2, §3, §4
Additional oligonucleotides, some incorporating modified bases, were tested for immunomodulatory activity in the human PBMC assay. Oligonucleotides were tested alone or in combination with cPLGA as described in Example 5. The oligonucleotides were premixed with the cationic PLGA microspheres for 15 minutes at room temperature at concentrations of 20 μg/ml and 100 μg/ml, respectively.

[3] = delivered as oligonucleotide/MC complex (cPLGA)

| Substance | IFN-α Mean ([1]; mean of volunteers 154-157) [pg/mL] | IFN-γ Mean ([1]; mean of volunteers 154-157) [pg/mL] | IFN-α ([1]; volunteer 154) [pg/mL] | IFN-γ ([1]; volunteer 154) [pg/mL] | IFN-α ([1]; volunteer 155) [pg/mL] | IFN-γ ([1]; volunteer 155) [pg/mL] | IFN-α ([1]; volunteer 156) [pg/mL] | IFN-γ ([1]; volunteer 156) [pg/mL] | IFN-α ([1]; volunteer 157) [pg/mL] | immunomodulatory activity [1, 3] | IFN-α ([1]; donor 28075) [pg/mL] | IFN-γ ([1]; donor 28075) [pg/mL] | IFN-α ([1]; donor 28076) [pg/mL] | IFN-γ ([1]; donor 28076) [pg/mL] | IFN-α ([1]; donor 28077) [pg/mL] | IFN-γ ([1]; donor 28077) [pg/mL] | IFN-α ([1]; donor 28078) [pg/mL] | IFN-γ ([1]; donor 28078) [pg/mL] | IFN-α Mean ([1]; mean of donors 28075-28078) [pg/mL] | IFN-γ Mean ([1]; mean of donors 28075-28078) [pg/mL] | further results |
| --- | --- | --- | --- | --- | --- | --- | --- | --- | --- | --- | --- | --- | --- | --- | --- | --- | --- | --- | --- | --- | --- |
| 5′-TCGCGA-3′ [Oligonucleotide 6-10] | 0 | 4 | 0 | 0 | 0 | 0 | 0 | 15 | 0 | – | – | – | – | – | – | – | – | – | – | – | IFN-γ ([1]; volunteer 157): 0 pg/mL |
| 5′-TCGTCG-3′ [Oligonucleotide 6-12] | – | – | – | – | – | – | – | – | – | highly active | 5 | 8 | 3 | 13 | 187 | 13 | 181 | 18 | 94 | 13 | – |
| 5′-GCGTTT-3′ [Oligonucleotide 6-15] | – | – | – | – | – | – | – | – | – | inactive | 36 | 11 | 9 | 12 | 35 | 15 | 36 | 11 | 29 | 13 | immunomodulatory activity ([1]; delivered alone): inactive |
| 5′-GACGTT-3′ [Oligonucleotide 6-17, reference compound] | 0 | 4 | 0 | 0 | 0 | 0 | 0 | 16 | 0 | largely inactive | – | – | – | – | – | – | – | – | – | – | IFN-γ ([1]; volunteer 157): 0 pg/mL |
| 5′-TCG-3′ [Oligonucleotide 3-1] | – | – | – | – | – | – | – | – | – | active in two out of four donors | 0 | 7 | 0 | 11 | 4 | 12 | 11 | 15 | 4 | 11 | – |
| 5′-TCGT-3′ [Oligonucleotide 4-1] | – | – | – | – | – | – | – | – | – | active in two out of four donors | 0 | 9 | 3 | 12 | 0 | 14 | 10 | 14 | 3 | 12 | – |
| 5′-UCGTTT-3′ [Oligonucleotide 6-21] | – | – | – | – | – | – | – | – | – | – | – | – | – | – | – | – | – | – | – | – | immunomodulatory activity [2]: active; IFN-α ([2]; donor 28115): 0 pg/mL; IFN-γ ([2]; donor 28115): 27 pg/mL; IFN-α ([2]; donor 28116): 0 pg/mL; IFN-γ ([2]; donor 28116): 0 pg/mL; IFN-α ([2]; donor 28117): 0 pg/mL; IFN-γ ([2]; donor 28117): 7 pg/mL; IFN-α ([2]; donor 28118): 0 pg/mL; IFN-γ ([2]; donor 28118): 0 pg/mL; IFN-α Mean [2]: 0 pg/mL; IFN-γ Mean [2]: 8 pg/mL |
| 5′-ACGTTT-3′ [Oligonucleotide 6-13] | – | – | – | – | – | – | – | – | – | inactive | 10 | 8 | 39 | 225 | 28 | 18 | 34 | 15 | 28 | 67 | immunomodulatory activity ([1]; delivered alone): inactive |
| 5′-TCCGGA-3′ [Oligonucleotide 6-18, reference compound] | 0 | 4 | 0 | 0 | 0 | 0 | 0 | 15 | 0 | largely inactive | – | – | – | – | – | – | – | – | – | – | IFN-γ ([1]; volunteer 157): 0 pg/mL |
| 5′-AATCGT-3′ [Oligonucleotide 6-25] | – | – | – | – | – | – | – | – | – | – | – | – | – | – | – | – | – | – | – | – | immunomodulatory activity [2]: active; IFN-α ([2]; donor 28115): 7 pg/mL; IFN-γ ([2]; donor 28115): 2 pg/mL; IFN-α ([2]; donor 28116): 0 pg/mL; IFN-γ ([2]; donor 28116): 15 pg/mL; IFN-α ([2]; donor 28117): 0 pg/mL; IFN-γ ([2]; donor 28117): 11 pg/mL; IFN-α ([2]; donor 28118): 0 pg/mL; IFN-γ ([2]; donor 28118): 0 pg/mL; IFN-α Mean [2]: 2 pg/mL; IFN-γ Mean [2]: 7 pg/mL |
| 5′-TTTTCG-3′ [Oligonucleotide 6-5] | 0 | 3 | 0 | 0 | 0 | 0 | 0 | 11 | 0 | – | – | – | – | – | – | – | – | – | – | – | IFN-γ ([1]; volunteer 157): 0 pg/mL |
| 5′-CCGTTT-3′ [Oligonucleotide 6-14] | – | – | – | – | – | – | – | – | – | inactive | 15 | 11 | 51 | 12 | 9 | 14 | 230 | 11 | 76 | 12 | immunomodulatory activity ([1]; delivered alone): inactive |
| 5′-CGATCG-3′ [Oligonucleotide 6-11] | 0 | 3 | 0 | 0 | 0 | 0 | 0 | 10 | 0 | – | – | – | – | – | – | – | – | – | – | – | IFN-γ ([1]; volunteer 157): 0 pg/mL |
